# Reference: patent US20050281749A1, “Sprayable compositions comprising a combination of pharmaceutical actives and an oily phase” (GALDERMA S.A., priority 2004, published 2005)
# Legend:
# [1] = Stability of calcitriol in Cetiol SN (cetearyl isononanoate), HPLC assay; type: physicochemical; settings: calcitriol 30 ppm in Cetiol SN with 0.4% BHT
# Text: (§1) b) Stability of calcitriol in Cetiol SN (cetearyl isononanoate): Solution of calcitriol 30 ppm in qs 100% of Cetiol SN (cetearyl isononanoate) in the presence of 0.4% of BHT. HPLC assay technique against reference substance. At the starting time (TO) the composition is considered to contain 100% of calcitriol. Concentration of calcitriol measured in % relative to TO: […]
# [2] = Stability of calcitriol in Miglyol 812 (caprylic/capric triglycerides), HPLC assay; type: physicochemical; settings: calcitriol 30 ppm in Miglyol 812 with 0.4% BHT
# Text: as §1, with “a)” for “b)”, “Miglyol 812 (caprylic/capric triglycerides):” for “Cetiol SN (cetearyl isononanoate):”, “Miglyol 812” for “Cetiol SN (cetearyl isononanoate)”
structure (smiles),measurement,setting,value
C=C1/C(=C\C=C2/CCC[C@]3(C)[C@@H]([C@H](C)CCCC(C)(C)O)CC[C@@H]23)C[C@@H](O)C[C@@H]1O [calcitriol],Concentration of calcitriol measured in % relative to TO,"[1]; +4° C., T 2 weeks",98.6%
same,Concentration of calcitriol measured in % relative to TO,"[1]; +4° C., T 4 weeks",98.1%
same,Concentration of calcitriol measured in % relative to TO,"[1]; +40° C., T 2 weeks",99.0%
same,Concentration of calcitriol measured in % relative to TO,"[1]; +40° C., T 4 weeks",98.9%
same,Concentration of calcitriol measured in % relative to TO,"[1]; AT, T 2 weeks",98.7%
same,Concentration of calcitriol measured in % relative to TO,"[1]; AT, T 4 weeks",98.4%
same,Concentration of calcitriol measured in % relative to TO,"[2]; +4° C., T 2 weeks",98.3%
same,Concentration of calcitriol measured in % relative to TO,"[2]; +4° C., T 4 weeks",105.2%
same,Concentration of calcitriol measured in % relative to TO,"[2]; +40° C., T 2 weeks",91%
same,Concentration of calcitriol measured in % relative to TO,"[2]; +40° C., T 4 weeks",93.8%
same,Concentration of calcitriol measured in % relative to TO,"[2]; AT, T 2 weeks",95.1%
same,Concentration of calcitriol measured in % relative to TO,"[2]; AT, T 4 weeks",98.0%
